Reference: ChEMBL document CHEMBL1201862, “PubChem BioAssay data set” (2004)
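Five compound concentrations were applied to cells in 96-well plates for 48 hours; endpoints were derived by simple linear interpolation of the resulting dose-response curve. At the GI50, growth is halved.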 Calls of active or inactive are those of the source. No stated cut-off is given here; in the data, active = GI50 up to about 1.1 µM and inactive = higher. Where a SMILES comes first, the peptide text is derived from it. The star is where a group is joined. Boc = CC(C)(C)OC(=O)*

How the values were obtained:
Test in all cases: NCI tumour cell line growth inhibition, 48 h
A498 = tested on: A498
CAKI-1 = tested on: CAKI-1
CCRF-CEM = tested on: CCRF-CEM
DU-145 = tested on: DU-145
HL-60 = tested on: HL-60
HOP-62 = tested on: HOP-62
HOP-92 = tested on: HOP-92
Hs-578T = tested on: Hs-578T
MDA-MB-435 = tested on: MDA-MB-435
MDA-N = tested on: MDA-N
MOLT-4 = tested on: MOLT-4
NCI-H226 = tested on: NCI-H226
OVCAR-3 = tested on: OVCAR-3
OVCAR-8 = tested on: OVCAR-8
SF-268 = tested on: SF-268
SK-OV-3 = tested on: SK-OV-3
SR = tested on: SR
SW-620 = tested on: SW-620
T47D = tested on: T47D
UACC-257 = tested on: UACC-257

What does the source list for `CCN1C(NN)=NS(=O)(=O)c2ccccc21`?
GI50 (A498): > 100 µM (inactive); GI50 (CAKI-1): > 100 µM (inactive); GI50 (CCRF-CEM): > 100 µM (inactive); GI50 (DU-145): > 100 µM (inactive); GI50 (HL-60): > 100 µM (inactive); GI50 (HOP-62): > 100 µM (inactive); GI50 (HOP-92): > 100 µM (inactive); GI50 (Hs-578T): > 100 µM (inactive); GI50 (MDA-MB-435): > 100 µM (inactive); GI50 (MDA-N): > 100 µM (inactive); GI50 (MOLT-4): > 100 µM (inactive); GI50 (NCI-H226): > 100 µM (inactive); GI50 (OVCAR-3): > 100 µM (inactive); GI50 (OVCAR-8): > 100 µM (inactive); GI50 (SF-268): > 100 µM (inactive); GI50 (SK-OV-3): > 100 µM (inactive); GI50 (SR): > 100 µM (inactive); GI50 (SW-620): > 100 µM (inactive); GI50 (T47D): > 100 µM (inactive); GI50 (UACC-257): > 100 µM (inactive)

How did the GI50 (A498) turn out when `CC1=C(C(=O)OC2CC3CCC2(C)C3(C)C)C2Nc3ccccc3N(C)C2O1` (stereo not given) was run?
The GI50 was 6.12 µM (inactive).

And the GI50 (CAKI-1)?
The GI50 was 2.95 µM (inactive).

And the GI50 (CCRF-CEM)?
The GI50 was 2.04 µM (inactive).

And the GI50 (DU-145)?
Its GI50 is 1.47 µM (inactive).

What about the GI50 (HL-60) of the same compound?
The GI50 was 2.1 µM (inactive).

And the GI50 (HOP-62)?
The GI50 was 3.84 µM (inactive).

And the GI50 (HOP-92)?
The GI50 was 3.22 µM (inactive).

And the GI50 (Hs-578T)?
Its GI50 is 3.26 µM (inactive).

And the GI50 (MDA-MB-435)?
The GI50 was 1.54 µM (inactive).

And the GI50 (MDA-N)?
The GI50 was 1.77 µM (inactive).

And the GI50 (MOLT-4)?
Its GI50 is 1.84 µM (inactive).

And the GI50 (NCI-H226)?
The GI50 was 4.3 µM (inactive).

What about the GI50 (OVCAR-3) of the same compound?
The GI50 was 2.24 µM (inactive).

What about the GI50 (OVCAR-8) of the same compound?
The GI50 was 2.37 µM (inactive).

What about the GI50 (SF-268) of the same compound?
The GI50 was 4.8 µM (inactive).

And the GI50 (SK-OV-3)?
The GI50 was 4.43 µM (inactive).

And the GI50 (SR)?
Its GI50 is 1.19 µM (inactive).

What about the GI50 (SW-620) of the same compound?
Its GI50 is 2.14 µM (inactive).

What about the GI50 (T47D) of the same compound?
The GI50 was 3.04 µM (inactive).

What about the GI50 (UACC-257) of the same compound?
The GI50 was 1.79 µM (inactive).

What does the source list for `CCOC(=O)C(CC(C)C)NC(=O)C(Cc1ccccc1)NC(=O)CNC(=O)OC(C)(C)C` (stereo not drawn) (Boc-Gly-Phe-Leu-OEt; configuration not given here)?
GI50 (A498): 22.1 µM (inactive); GI50 (CAKI-1): 0.145 µM (active); GI50 (CCRF-CEM): 16.6 µM (inactive); GI50 (DU-145): 21.3 µM (inactive); GI50 (HL-60): 2.42 µM (inactive); GI50 (HOP-62): 28.2 µM (inactive); GI50 (HOP-92): 25.2 µM (inactive); GI50 (Hs-578T): 31.8 µM (inactive); GI50 (MDA-MB-435): 18.2 µM (inactive); GI50 (MDA-N): 14.7 µM (inactive); GI50 (MOLT-4): 11.1 µM (inactive); GI50 (NCI-H226): 17.3 µM (inactive); GI50 (OVCAR-3): 17.2 µM (inactive); GI50 (OVCAR-8): 21.7 µM (inactive); GI50 (SF-268): 21 µM (inactive); GI50 (SK-OV-3): 20.8 µM (inactive); GI50 (SR): 15.8 µM (inactive); GI50 (SW-620): 20.6 µM (inactive); GI50 (T47D): 26.5 µM (inactive); GI50 (UACC-257): 19.7 µM (inactive)

Which GI50 (A498) does the source give for `Nc1ccc(S(=O)(=O)Nc2cnc3c(Cl)cccc3n2)cc1` [CHLORSULFAQUINOXALINE] here?
The GI50 was 131 µM (inactive).

What about the GI50 (CAKI-1) of the same compound?
The GI50 was 56.2 µM (inactive).

What about the GI50 (CCRF-CEM) of the same compound?
Its GI50 is 52.6 µM (inactive).

And the GI50 (DU-145)?
Its GI50 is 175 µM (inactive).

And the GI50 (HL-60)?
Its GI50 is 167 µM (inactive).

What about the GI50 (HOP-62) of the same compound?
The GI50 was 78.9 µM (inactive).

And the GI50 (HOP-92)?
Its GI50 is 71.3 µM (inactive).

And the GI50 (Hs-578T)?
The GI50 was 63.5 µM (inactive).

What about the GI50 (MDA-MB-435) of the same compound?
Its GI50 is > 70 µM (inactive).

What about the GI50 (MDA-N) of the same compound?
Its GI50 is 24.3 µM (inactive).

What about the GI50 (MOLT-4) of the same compound?
The GI50 was 75.2 µM (inactive).

What about the GI50 (NCI-H226) of the same compound?
Its GI50 is 163 µM (inactive).

What about the GI50 (OVCAR-3) of the same compound?
Its GI50 is 167 µM (inactive).

And the GI50 (OVCAR-8)?
The GI50 was 144 µM (inactive).

What about the GI50 (SF-268) of the same compound?
Its GI50 is 197 µM (inactive).

What about the GI50 (SK-OV-3) of the same compound?
The GI50 was > 33 µM (inactive).

And the GI50 (SR)?
The GI50 was 56.4 µM (inactive).

And the GI50 (SW-620)?
Its GI50 is 26.1 µM (inactive).

What about the GI50 (T47D) of the same compound?
Its GI50 is 96.2 µM (inactive).

And the GI50 (UACC-257)?
Its GI50 is 344 µM (inactive).
